Where “and” joins values, the source holds several entries; their conditions need not be identical. Identical values can stand only once.
Assays:
NKCC1 pThr203/207/212 [1] = assay: Immunoblot of NKCC1 p-Thr203/Thr207/Thr212 in HEK-293 cells; type: cell-based, human; conditions: for pNKCC1/NKCC1 band intensity ratio: single replicates
SPAK phosphorylation = assay: Pharmacodynamic study, SPAK phosphorylation in kidney of naive mice; type: in vivo, mouse; conditions: Fig S8b (kidney)
Method: (§1) To define ZT-1a efficacy in naive mice in vivo, we examined phosphorylation of SPAK, NKCC1, and NCC in kidney, and phosphorylation of SPAK, NKCC1, and KCC3 in brain, after intraperitoneal (i.p.) administration of either ZT-1a (10, 30, 50, and 100 mg/kg) or Closantel (50 mg/kg as a reference). […]
(§2) 5. Pharmacodynamic (PD) study
(§3) Male C57BL/6j wild-type mice (6 weeks old, Charles River Laboratories Edinburgh UK) were treated with ZT-1a (in DMSO, Sigma) by subcutaneous injection at doses of 0, 3, 10, 30, 50 and 100 mg/kg. 50 mg/kg Closantel was administered as a comparative control. Vehicle control mice were treated with an equal volume of DMSO solution. One hour after administration, mice were sacrificed by cervical dislocation, and kidney and brain tissues were rapidly dissected and snap-frozen in liquid nitrogen. Age- […]
(§4) free conditions at the University of Dundee (UK) as described in our recent study1. Animal experiments and breeding were approved by the University of Dundee ethical committee and performed under a […]
(§5) Policy on the Care, Welfare and Treatment of Animals, and regulations set by the University of Dundee and the U.K. Home Office. […]
(§6) Brain and kidney tissues were collected at 60 min post injection, and proteins subjected to immunoblot were probed with antibodies specific for phosphorylated forms of SPAK,

NCC pThr46/50/55/60 = assay: Pharmacodynamic study, NCC phosphorylation in kidney of naive mice; type: in vivo, mouse; conditions: Fig S8b (kidney)
Method: as §1, §2, §3, §4, §5, §6

NKCC1 pThr203/207/212 [2] = assay: Pharmacodynamic study, NKCC1 phosphorylation in brain of naive mice; type: in vivo, mouse; conditions: for pTh203.207.212 / NKCC1: Fig S8a (brain)
Method: as §1, §2, §3, §4, §5, §6

[3] = tested on: regional cerebral blood flow; assay: Regional cerebral blood flow by laser speckle contrast imaging after tMCAO; type: in vivo, mouse; conditions: single mice
Method: Regional cerebral blood flow was measured using a two-dimensional laser speckle contrast analysis system (PeriCam PSI High Resolution with PIMSoft, Perimed)[65]. Isoflurane-anesthetized mice were head-fixed using stereotaxic equipment during imaging. The skin was retracted to expose the intact skull. Images were taken at 19 frames/second with averaging. Average signal intensity was taken from fixed-size (0.5-mm^2) regions of interest drawn over the parietal bone plate on the ipsi (IL)- and contralateral (CL) sides. Percent perfusion values were taken in comparison with the mean values of the pre-ischemic ipsilateral side. Five consecutive images at each time period per animal were averaged for analysis. […]
cerebral blood flow (rCBF) in ischemic mice. a and d Representative two-dimensional laser speckle contrast images of rCBF. Vehicle (DMSO), ZT-1a (A, 2.5 mg/kg), or Closantel (D, 1.25 mg/kg, i.p.) was administered i.p. at 3 hr and again at 8 hr post-reperfusion after MCAO. Pseudocolor scale bar indicates relative signal intensity. b and e No changes of rCBF were detected in the non-ischemic […]
contralateral (CL) hemispheres of vehicle-control or ZT-1a-treated (b) or Closantel-treated mice (e).
Data are mean ± SD, n = 3. c and f Similar reductions and recoveries of rCBF in the ischemic ipsilateral hemispheres (IL) were detected in the ZT-1a-treated (c) or Closantel-treated ischemic mice (f), and neither differed from vehicle-injected mice. Data are mean ± SEM, n = 3.

## Cc1cc(C(C#N)c2ccc(Cl)cc2)c(Cl)cc1NC(=O)c1cc(Cl)ccc1O (stereo not shown) [ZT-1a, 5-chloro-N-(5-chloro-4-((4-chlorophenyl)(cyano)methyl)-2-methylphenyl)-2-hydroxybenzamide]
NKCC1 pThr203/207/212 [1]; Homo sapiens, HEK293, read-out: inhibition of phosphorylation of NKCC1 p-Thr203/207/212, 1 µM ZT-1a, HEK-293 cells, n = 4
  inhibition at 1 µM: 72 ± 5.2%
NKCC1 pThr203/207/212 [1]; Hypotonic low Cl, 1 uM
  pNKCC1/NKCC1 band intensity ratio: 0.292 and 0.311 and 0.247 and 0.273
NKCC1 pThr203/207/212 [1]; Hypotonic low Cl, 3 uM
  pNKCC1/NKCC1 band intensity ratio: 0.113 and 0.104 and 0.103 and 0.1063
NKCC1 pThr203/207/212 [1]; Hypotonic low Cl, 10 uM
  pNKCC1/NKCC1 band intensity ratio: 0.004 and 0.007 and 0.005 and 0.003
NKCC1 pThr203/207/212 [1]; Isotonic control, 1 uM
  pNKCC1/NKCC1 band intensity ratio: 0.133 and 0.075 and 0.106 and 0.093
NKCC1 pThr203/207/212 [1]; Isotonic control, 3 uM
  pNKCC1/NKCC1 band intensity ratio: 0.048 and 0.046 and 0.043 and 0.041
NKCC1 pThr203/207/212 [1]; Isotonic control, 10 uM
  pNKCC1/NKCC1 band intensity ratio: 0.006 (2×) and 0.004 and 0.005
SPAK phosphorylation; 10 mg/kg
  pSer373 / SPAK: 0.9 and 1.08 and 0.92 and 0.99
SPAK phosphorylation; 30 mg/kg
  pSer373 / SPAK: 0.85 and 0.8 and 0.86 and 0.76
SPAK phosphorylation; 50 mg/kg
  pSer373 / SPAK: 0.56 and 0.45 and 0.51 and 0.41
SPAK phosphorylation; 100 mg/kg
  pSer373 / SPAK: 0.37 and 0.44 and 0.38 and 0.4
NCC pThr46/50/55/60; 10 mg/kg
  pTh46.50.55 / NCC: 1.78 and 1.82 and 2.81 and 2.21
  pTh60 / NCC: 1.01 and 0.99 and 1 and 0.94
NCC pThr46/50/55/60; 30 mg/kg
  pTh46.50.55 / NCC: 2.61 and 1.78 and 2.06 and 1.98
  pTh60 / NCC: 1.05 and 0.97 and 0.9 and 1.01
NCC pThr46/50/55/60; 50 mg/kg
  pTh46.50.55 / NCC: 0.4 and 0.7 and 0.69 and 0.55
NCC pThr46/50/55/60; 100 mg/kg
  pTh46.50.55 / NCC: 0.68 and 0.46 and 0.41
NKCC1 pThr203/207/212 [2]; 60 min after administration
  NKCC1 phosphorylation (pThr203/207/212) in naive brains: neither drug had reduced
NKCC1 pThr203/207/212 [2]; 10 mg/kg
  pTh203.207.212 / NKCC1: 0.75 and 0.66 and 0.74 and 0.69
NKCC1 pThr203/207/212 [2]; 30 mg/kg
  pTh203.207.212 / NKCC1: 0.62 and 0.59 and 0.64 and 0.61
NKCC1 pThr203/207/212 [2]; 50 mg/kg
  pTh203.207.212 / NKCC1: 0.66 and 0.75 and 0.63 and 0.69
NKCC1 pThr203/207/212 [2]; 100 mg/kg
  pTh203.207.212 / NKCC1: 0.61 and 0.67 and 0.74 and 0.58
[3]; Fig S10b/S10e, Pre
  % CBF: 100%
[3]; Fig S10b/S10e, Reperfusion 10 min
  % CBF: 99% and 109% and 96%
[3]; Fig S10b/S10e, Reperfusion 20 min
  % CBF: 87% and 110% and 86%
[3]; Fig S10b/S10e, Reperfusion 3 h
  % CBF: 120% and 108% and 100%
[3]; Fig S10b/S10e, Reperfusion 4 h
  % CBF: 119% and 117% and 112%
[3]; Fig S10b/S10e, Reperfusion 24 h
  % CBF: 106% and 104% and 114%
[3]; Fig S10b/S10e, mcao 10 min
  % CBF: 78% and 99% and 105%
[3]; Fig S10b/S10e, mcao 20min
  % CBF: 76% and 107% and 98%
[3]; Fig S10b/S10e, mcao 50 min
  % CBF: 104% and 96%
[3]; Fig S10c/S10f, Pre
  % CBF: 100%
[3]; Fig S10c/S10f, Reperfusion 10 min
  % CBF: 70% and 72% and 78%
[3]; Fig S10c/S10f, Reperfusion 20 min
  % CBF: 75% and 66% and 82%
[3]; Fig S10c/S10f, Reperfusion 3 h
  % CBF: 84% and 102% and 81%
[3]; Fig S10c/S10f, Reperfusion 4 h
  % CBF: 75% and 87% and 86%
[3]; Fig S10c/S10f, Reperfusion 24 h
  % CBF: 83% and 101% and 109%
[3]; Fig S10c/S10f, mcao 10 min
  % CBF: 35% and 30% and 25%
[3]; Fig S10c/S10f, mcao 20min
  % CBF: 32% and 31% and 24%
[3]; Fig S10c/S10f, mcao 50 min
  % CBF: 30% and 27% and 22%

— article PMC6946680, “Modulation of brain cation-Cl^− cotransport via the SPAK kinase inhibitor ZT-1a” (Nature Communications, 2020)
